Data set [1] has as its system dogs. The settings on record: cited from earlier work.
The target of data set [2] is T1, CDK8 (Homo sapiens, UniProt P49336). Description: Cell-based QPCR assay of CDK8/19-dependent gene expression, HEK293 CDK19 single-knockout (19KO) cells. On the set-up: CDK19 single-knockout (19KO); endogenous in cells; host or cells: HEK293 CDK19 knockout (19KO). To be noted: 19KO, HEK293 19KO, 1 h pre-treatment, then 10 ng/mL TNFα 2 h.
Target sequence in this assay (P49336 whole entry): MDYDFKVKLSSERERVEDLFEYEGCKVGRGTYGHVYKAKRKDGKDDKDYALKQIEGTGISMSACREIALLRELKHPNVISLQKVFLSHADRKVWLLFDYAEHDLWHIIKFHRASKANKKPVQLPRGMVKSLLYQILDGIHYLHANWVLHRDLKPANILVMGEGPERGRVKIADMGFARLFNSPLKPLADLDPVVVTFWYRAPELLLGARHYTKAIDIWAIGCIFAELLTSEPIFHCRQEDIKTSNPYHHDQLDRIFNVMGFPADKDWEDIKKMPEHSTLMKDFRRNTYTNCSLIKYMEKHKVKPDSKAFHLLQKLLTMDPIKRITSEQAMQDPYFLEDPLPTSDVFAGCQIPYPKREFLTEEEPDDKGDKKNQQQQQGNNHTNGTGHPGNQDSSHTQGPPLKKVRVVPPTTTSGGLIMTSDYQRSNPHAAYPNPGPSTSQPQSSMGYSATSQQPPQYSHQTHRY
Target sequence in this assay (P24863 whole entry partner): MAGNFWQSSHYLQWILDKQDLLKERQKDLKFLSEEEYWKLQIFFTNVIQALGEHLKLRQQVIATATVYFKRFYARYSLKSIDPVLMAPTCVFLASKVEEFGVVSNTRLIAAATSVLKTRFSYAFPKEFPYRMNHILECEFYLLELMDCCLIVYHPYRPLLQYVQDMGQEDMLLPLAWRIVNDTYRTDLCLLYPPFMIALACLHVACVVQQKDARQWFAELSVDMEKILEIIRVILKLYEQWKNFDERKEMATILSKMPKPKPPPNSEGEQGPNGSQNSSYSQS
Description: (§2) CDK8/CDK19 single knockout and double knockout derivatives of human embryonic kidney (HEK) 293 cells (ATCC CRL-1573) were generated as previously described [18]. All cells were cultured in DMEM (high-glucose) media supplemented with 10% fetal bovine serum (FBS) and Penicillin-Streptomycin-Glutamine (1×) at 37 °C with 5% CO2 and routinely confirmed to be free of mycoplasma.
(§3) Total RNA was extracted using RNAeasy Mini Kit (Qiagen, Germantown, MD, USA) and 1 µg of total RNA was used to generate cDNA using iScript cDNA synthesis kit (Bio-Rad Laboratories, Hercules, CA, USA). Gene expression was quantified using iTaq Universal SYBR green super mix using CFX384 Real-Time System (Bio-Rad).
(§4) The IC50 values for different inhibitors in inhibiting CDK8/19-dependent gene expression were calculated using a three-parameter least square (ordinary) fitting method with GraphPad Prism 7.0 (GraphPad Software, San Diego, CA, USA). The Kruskal–Wallis non-parametric ANOVA was used to compare gene expression levels under no-inhibitor conditions between wild-type cells and knockout derivatives (8KO, 19KO and dKO) with GraphPad Prism 7.0.
(§5) Cells were pre-treated with different concentrations of CDK8/19 inhibitors for 1 h and then 10 ng/mL TNFα, an inducer of transcription factor NFκB, which is potentiated by CDK8/19 [5], was added for 2 h before RNA extraction. QPCR was carried out to quantify CDK8/19-regulated expression of NFκB-inducible genes CXCL1 and CXCL8 and the basal expression of MYC.
The test system of data set [3] is CDK8/19. Put plainly: Cell-based QPCR assay of CDK8/19-dependent gene expression, HEK293 parental (WT) cells. Also on record: species or system human. The settings on record: HEK293 WT, 1 h pre-treatment, then 10 ng/mL TNFα 2 h, QPCR.
Description: All cells were cultured in DMEM (high-glucose) media supplemented with 10% fetal bovine serum (FBS) and Penicillin-Streptomycin-Glutamine (1×) at 37 °C with 5% CO2 and routinely confirmed to be free of mycoplasma.
as §3
The IC50 values for different inhibitors in inhibiting CDK8/19-dependent gene expression were calculated using a three-parameter least square (ordinary) fitting method with GraphPad Prism 7.0 (GraphPad Software, San Diego, CA, USA).
as §5
The target of data set [4] is T2, CDK19 (Homo sapiens, UniProt Q9BWU1). Description: KdELECT Kd determination, CDK19. In kind it is binding. On the set-up: purchased DiscoverX. On the procedure:
(§1) To determine dissociation constants (Kds) of compounds on different targets, an 11-point 3-fold serial dilution of each test compound was tested in independent duplicate assays.
Target sequence in this assay (Q9BWU1 whole entry): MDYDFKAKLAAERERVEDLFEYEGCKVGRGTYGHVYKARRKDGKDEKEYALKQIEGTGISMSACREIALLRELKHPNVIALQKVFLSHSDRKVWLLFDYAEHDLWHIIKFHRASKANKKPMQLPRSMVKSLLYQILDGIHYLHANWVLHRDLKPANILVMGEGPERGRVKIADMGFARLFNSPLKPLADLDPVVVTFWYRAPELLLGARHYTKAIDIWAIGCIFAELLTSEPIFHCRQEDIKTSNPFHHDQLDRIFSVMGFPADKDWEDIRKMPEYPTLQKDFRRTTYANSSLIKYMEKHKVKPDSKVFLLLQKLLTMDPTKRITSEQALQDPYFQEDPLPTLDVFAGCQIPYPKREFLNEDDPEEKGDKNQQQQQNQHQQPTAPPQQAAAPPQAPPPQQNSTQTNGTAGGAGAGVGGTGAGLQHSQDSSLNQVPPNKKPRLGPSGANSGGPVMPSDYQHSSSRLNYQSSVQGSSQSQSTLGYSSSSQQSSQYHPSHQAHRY

Data set [5] concerns non-dechorionated embryos of zebrafish TU strain. Description: Zebrafish toxicity assay, non-dechorionated embryos (TU strain). In kind it is in vivo. The settings on record: all the tested concentrations (0.5 μM, 1 μM and 2 μM); 3-5 days. On the procedure: The toxicity studies in non-dechorionated embryos of zebrafish TU strain were approved by the Institutional Animal Care and Use Committee of the University of South Carolina. The studies were conducted in sterile 24-well plates with one 24 hpf embryo in each well in a 1 mL volume of egg water. For each plate, 6 wells were treated with vehicle control and the other 18 wells (i.e., biological replicates) were treated with different CDK8/19 inhibitors at different concentrations. […] All the data from the plates with at least five healthy vehicle-treated embryos on day 5 were compiled together for final data analysis.

The test system of data set [6] is rats. The settings on record: cited from earlier work.
The target in data set [7] is T3, GSK3A (Homo sapiens, UniProt P49840).
T3 construct: purchased DiscoverX
Put plainly: KdELECT Kd determination, GSK3A. The settings on record: 11-point 3-fold serial dilution, duplicate; read-out: Kd for the inhibition of nucleotide binding, GSK3A. On the procedure: The screening platform employs an active site-directed competition binding assay to quantitatively measure interactions between test compounds and targeting kinases. […] To determine dissociation constants (Kds) of compounds on different targets, an 11-point 3-fold serial dilution of each test compound was tested in independent duplicate assays.
This assay has been previously used with many CDK8/19 inhibitors, including cortistatin A and its equipotent analog dCA [20, 21]; 15w.

The subject of data set [8] is dechorionated zebrafish embryos (Danio rerio, AB strain). Description: Zebrafish toxicity assay, mechanically dechorionated embryos (AB strain). In kind it is in vivo. The settings on record: 1 μM; starting after 72 hpt. On the procedure: The toxicity screen using dechorionated zebrafish embryos (Danio rerio, AB strain) was performed by Arkana Laboratories, Little Rock, AR, as a service. The toxicity of different CDK8/19 inhibitors was evaluated in sterile 96-well plates with U-shaped bottoms. 12 wells (i.e., biological replicates) per test chemical and the vehicle control (0.1% DMSO) were used and the experiment was performed in triplicate. Treatment was performed via addition of 20 µL of 10× concentrations of each tested compound in 1% DMSO-containing egg water to each well containing one 24 hpf (hours post fertilization) mechanically-dechorionated embryo in 180 µL volume of egg water (i.e., 0.1% final DMSO concentration). The fish embryos cultured at 28.5 °C were examined at 24, 48, 72 and 96 h post treatment (hpt) and scored as “healthy”, “abnormal” or “dead”. Phenotypes observed and assessed as abnormal included: cardiac edema (intermediate and severe stages), overall edema, enlarged head, malformation of the eyes, curved body axis, shortened body axis and malformation of the tail. […] Positive control 3,4-dichloroaniline (3,4-DCA) was tested at 8 mg/L.

In data set [9] the target is T2, CDK19. Description: Cell-based QPCR assay of CDK8/19-dependent gene expression, HEK293 CDK8 single-knockout (8KO) cells. Also on record: CDK8 single-knockout (8KO); endogenous in cells; host or cells: HEK293 CDK8 knockout (8KO). To be noted: 8KO, HEK293 8KO, 1 h pre-treatment, then 10 ng/mL TNFα 2 h.
Target sequence in this assay (Q9BWU1 whole entry): as above
Target sequence in this assay (P24863 whole entry partner): as the sequence (P24863 whole entry partner) above
Description: as §2, §3, §4, §5
Data set [10] has as its target T1, CDK8. Description: KdELECT Kd determination, CDK8. Type of data set: binding. On the set-up: purchased DiscoverX. On the procedure: as §1
Target sequence in this assay (P49336 whole entry): as the sequence (P49336 whole entry) above
On the set-up of data set [11]: method as in PMID 27935476. The settings on record: colon cancer and leukemia mouse xenograft models; cited from earlier work.
Data set [12] concerns the target T4, GSK3B (Homo sapiens, UniProt P49841).
T4 construct: purchased DiscoverX
Description: KdELECT Kd determination, GSK3B. The settings on record: 11-point 3-fold serial dilution, duplicate; read-out: Kd for the inhibition of nucleotide binding, GSK3B. On the procedure: as §1

The target in data set [13] is T5, GSK3β (Homo sapiens, UniProt P49841).
T5 construct: purchased Promega
Put plainly: ADP-Glo Kinase Assay, GSK3β kinase activity. Type of data set: biochemical. To be noted: 25 μM ATP, 60 min, room temperature. The protocol:
Effects of different compounds on GSK3β kinase activity were evaluated using ADP-Glo^TM Kinase Assay kit and GSK3β Kinase Enzyme System (Promega, Madison, WI, USA). Kinase reactions were carried out at room temperature for 60 min. Each reaction contained 1 ng GSK3β enzyme, 25 μM ATP, 0.2 μg/μL GSK3 substrate and test compounds at different concentrations. Equal volume of ADP-Glo reagent was then added to kinase reaction and incubated at room temperature for 40 min, followed by the addition of Kinase Detection Reagent and incubation at room temperature for another 20 min. Bioluminescence signals were measured in 384-well plates using ChemiDoc Touch™ (Bio-Rad) and ImageLab software (Bio-Rad, Version 5.2.1 build 11). Effects of inhibitors were presented as relative kinase activity, calculated from […].

Several values for one entry are separate records, joined by “and”; a condition that tells them apart may be missing. Equal values may be shown once. Read-outs that look alike come from different tables or passages of the source.

The IC50 is the concentration that gives 50% inhibition. In general, Kd refers to the equilibrium constant for the complex coming apart.

T5 sequence (P49841 whole entry): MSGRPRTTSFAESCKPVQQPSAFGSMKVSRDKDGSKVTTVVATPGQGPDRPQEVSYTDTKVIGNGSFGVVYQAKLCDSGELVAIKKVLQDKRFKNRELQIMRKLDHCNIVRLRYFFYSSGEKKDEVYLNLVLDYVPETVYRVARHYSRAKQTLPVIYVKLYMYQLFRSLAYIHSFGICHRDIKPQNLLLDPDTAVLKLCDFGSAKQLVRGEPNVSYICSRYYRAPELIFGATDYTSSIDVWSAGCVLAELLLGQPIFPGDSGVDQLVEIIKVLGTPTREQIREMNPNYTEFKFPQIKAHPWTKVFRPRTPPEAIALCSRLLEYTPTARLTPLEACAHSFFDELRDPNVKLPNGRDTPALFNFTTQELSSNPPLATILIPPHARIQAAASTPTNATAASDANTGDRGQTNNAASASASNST
T3 sequence (P49840 whole entry): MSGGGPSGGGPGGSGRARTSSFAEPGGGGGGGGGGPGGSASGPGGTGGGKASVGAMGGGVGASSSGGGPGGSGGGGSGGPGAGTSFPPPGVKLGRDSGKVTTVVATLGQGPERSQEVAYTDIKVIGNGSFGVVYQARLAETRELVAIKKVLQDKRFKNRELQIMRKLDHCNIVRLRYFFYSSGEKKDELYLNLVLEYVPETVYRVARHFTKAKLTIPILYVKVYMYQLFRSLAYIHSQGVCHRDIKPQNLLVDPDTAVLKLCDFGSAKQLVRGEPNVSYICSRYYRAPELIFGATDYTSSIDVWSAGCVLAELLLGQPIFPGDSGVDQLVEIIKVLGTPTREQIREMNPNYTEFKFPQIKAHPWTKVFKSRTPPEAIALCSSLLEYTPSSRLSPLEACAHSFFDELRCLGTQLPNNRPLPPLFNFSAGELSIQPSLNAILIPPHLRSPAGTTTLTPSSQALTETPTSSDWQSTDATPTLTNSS
T4 sequence (P49841 whole entry): as the sequence (P49841 whole entry) above

Turning to `Cc1n[nH]c2ncc(C(=O)N3CCC[C@H]3c3ccc(Cl)cc3)cc12` [Cmpd4], the Toxicity in dogs entry in data set [1] was “multiple and striking toxicities, including lethality”. For the same molecule, the IC50 in [2] (IC50, CXCL1 mRNA expression) was determined as 3.2 nM; in data set [2] (IC50, CXCL8 mRNA expression), 3.1 nM; in data set [2] (IC50, MYC mRNA expression), 1.9 nM; in [3] (read-out: IC50, CXCL1 mRNA expression, WT), 1.8 nM; in data set [3] (read-out: IC50, CXCL8 mRNA expression, WT), 2.1 nM; in data set [3] (read-out: IC50, MYC mRNA expression, WT) it was 2.4 nM. Moreover, the IC50 in data set [9] (IC50, CXCL1 mRNA expression) was 2.4 nM; in data set [9] (IC50, CXCL8 mRNA expression) it was 1.9 nM; in [9] (IC50, MYC mRNA expression), 1.4 nM; in data set [13], ~400 nM and 396 nM. Also, the Kd was determined as 94 nM in [4], 450 nM in [7], 115 nM in [10] and 190 nM in [12]. Moreover, in [5], the “Toxicity in TU strain zebrafish embryos” value is recorded as “very strong toxicity”. Also, the Toxicity in rats result in data set [6] is “multiple and striking toxicities, including lethality”. Further, in data set [8], the “Toxicity in dechorionated AB zebrafish larvae” value is on record as “severe toxicity”. Further, the “Weight loss in mice” value in data set [11] is listed as “detectable weight loss”.
